# Where a name gives a salt, the structure may show the parent alone.
# Legend:
# Format in all cases: biochemical
# [1] = target: T1, human JAK2 (a.a. 828-1132) (Homo sapiens, UniProt O60674); assay: In vitro JAK kinase assay (HTRF, phosphorylation of a biotinylated peptide), JAK2; details: Table B1
# T1 construct: JAK2 (a.a. 828-1132); His tag (N); made in house; host or cells: insect cells (baculovirus)
# How it was run: (§1)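 Kinase reactions ran at room temperature for 1 h with ATP matched per isoform (JAK1 90 μM, JAK2 30 μM, JAK3 3 μM). After an EDTA stop, the phosphorylated biotin-peptide was read by HTRF using Eu-Py20 and SA-APC after 40 min binding.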
# [2] = target: T2, Recombinant Human Anaplastic Lymphoma Kinase (Homo sapiens, UniProt Q9UM73); assay: ALK HTRF kinase assay; details: percentage inhibition of the example compound at a concentration of 500 nM or 1 mM (not specified which)
# T2 construct: purchased Invitrogen, Carlsbad, Calif
# T2 sequence (Q9UM73 19-1620): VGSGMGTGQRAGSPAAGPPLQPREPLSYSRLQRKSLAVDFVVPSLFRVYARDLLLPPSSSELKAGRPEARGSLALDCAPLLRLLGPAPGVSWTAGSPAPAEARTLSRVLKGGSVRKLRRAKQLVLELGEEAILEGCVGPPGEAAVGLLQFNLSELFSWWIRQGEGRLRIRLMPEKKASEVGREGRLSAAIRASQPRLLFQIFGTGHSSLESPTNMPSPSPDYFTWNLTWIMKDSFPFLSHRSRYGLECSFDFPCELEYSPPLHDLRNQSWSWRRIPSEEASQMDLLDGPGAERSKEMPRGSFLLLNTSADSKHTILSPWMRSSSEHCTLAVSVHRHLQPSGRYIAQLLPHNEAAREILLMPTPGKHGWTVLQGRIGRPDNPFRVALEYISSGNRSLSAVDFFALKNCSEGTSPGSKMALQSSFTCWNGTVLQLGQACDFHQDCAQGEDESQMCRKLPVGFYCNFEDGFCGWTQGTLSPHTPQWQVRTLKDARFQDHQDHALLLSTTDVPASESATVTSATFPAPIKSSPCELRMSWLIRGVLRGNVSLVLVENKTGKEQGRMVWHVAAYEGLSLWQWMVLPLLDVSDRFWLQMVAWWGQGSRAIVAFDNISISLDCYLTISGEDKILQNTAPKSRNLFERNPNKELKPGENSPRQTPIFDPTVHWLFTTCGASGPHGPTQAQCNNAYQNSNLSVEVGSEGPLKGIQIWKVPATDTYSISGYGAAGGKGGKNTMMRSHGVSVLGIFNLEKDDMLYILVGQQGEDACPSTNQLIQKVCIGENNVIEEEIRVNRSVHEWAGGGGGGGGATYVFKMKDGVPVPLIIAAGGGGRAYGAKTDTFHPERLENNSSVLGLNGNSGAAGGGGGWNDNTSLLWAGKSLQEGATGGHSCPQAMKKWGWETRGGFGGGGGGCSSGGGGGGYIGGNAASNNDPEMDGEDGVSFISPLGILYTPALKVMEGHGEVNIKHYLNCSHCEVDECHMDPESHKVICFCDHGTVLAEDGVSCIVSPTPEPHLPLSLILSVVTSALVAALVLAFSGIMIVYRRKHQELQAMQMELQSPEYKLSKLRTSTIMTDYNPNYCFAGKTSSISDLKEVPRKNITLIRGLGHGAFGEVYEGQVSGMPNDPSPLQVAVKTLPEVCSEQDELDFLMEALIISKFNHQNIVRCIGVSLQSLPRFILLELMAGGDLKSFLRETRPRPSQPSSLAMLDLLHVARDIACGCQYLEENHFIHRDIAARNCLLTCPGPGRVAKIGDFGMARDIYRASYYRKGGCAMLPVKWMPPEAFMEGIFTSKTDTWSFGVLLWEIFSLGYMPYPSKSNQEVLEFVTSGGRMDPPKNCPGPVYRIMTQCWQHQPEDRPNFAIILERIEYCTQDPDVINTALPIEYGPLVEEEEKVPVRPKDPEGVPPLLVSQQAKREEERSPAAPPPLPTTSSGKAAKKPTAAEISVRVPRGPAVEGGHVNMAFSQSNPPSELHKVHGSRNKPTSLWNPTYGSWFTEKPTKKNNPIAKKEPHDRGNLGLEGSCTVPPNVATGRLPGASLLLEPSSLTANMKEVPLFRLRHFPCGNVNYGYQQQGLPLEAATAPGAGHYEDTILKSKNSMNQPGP
# How it was run: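 Kinase activity of the recombinant human protein is measured on a biotinylated peptide, with a Eu-W1024 anti-phosphotyrosine antibody and streptavidin-allophycocyanin generating the homogeneous time-resolved fluorescence signal. Inhibition curves are fitted to yield IC50.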
# [3] = target: T3, human JAK3 (a.a. 781-1124) (Homo sapiens, UniProt P52333); assay: In vitro JAK kinase assay (HTRF, phosphorylation of a biotinylated peptide), JAK3; details: Table B1
# T3 construct: JAK3 (a.a. 781-1124); His tag (N); made in house; host or cells: insect cells (baculovirus)
# T3 sequence (P52333 781-1124): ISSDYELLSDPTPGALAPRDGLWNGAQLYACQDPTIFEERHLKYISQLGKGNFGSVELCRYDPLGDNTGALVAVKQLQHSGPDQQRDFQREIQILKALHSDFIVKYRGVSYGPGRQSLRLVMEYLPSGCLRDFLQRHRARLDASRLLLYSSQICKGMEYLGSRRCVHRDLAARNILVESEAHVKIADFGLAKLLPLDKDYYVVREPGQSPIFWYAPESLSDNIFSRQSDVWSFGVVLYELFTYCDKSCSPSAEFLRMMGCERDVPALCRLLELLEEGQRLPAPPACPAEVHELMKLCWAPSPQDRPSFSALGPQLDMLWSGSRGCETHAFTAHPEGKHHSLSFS
# How it was run: as §1
# [4] = target: T4, human JAK1 (a.a. 837-1142) (Homo sapiens, UniProt P23458); assay: In vitro JAK kinase assay (HTRF, phosphorylation of a biotinylated peptide), JAK1; details: Table B1; read-out: JAK1 IC50
# T4 construct: human JAK1 (a.a. 837-1142); His tag (N); made in house; host or cells: insect cells (baculovirus)
# T4 sequence (P23458 849-1154): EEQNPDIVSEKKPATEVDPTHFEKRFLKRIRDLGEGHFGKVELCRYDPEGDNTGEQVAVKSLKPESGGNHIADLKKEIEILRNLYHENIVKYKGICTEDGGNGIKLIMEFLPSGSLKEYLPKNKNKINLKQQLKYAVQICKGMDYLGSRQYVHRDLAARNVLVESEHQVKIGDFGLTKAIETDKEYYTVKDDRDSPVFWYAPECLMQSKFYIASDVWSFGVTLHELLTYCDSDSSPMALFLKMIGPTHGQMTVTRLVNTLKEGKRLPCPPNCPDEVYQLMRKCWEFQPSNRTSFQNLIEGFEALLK
# How it was run: as §1
# TYK2 = TYK2 (Homo sapiens, UniProt P29597); assay: TYK2 kinase inhibition (Table A1); details: Table B1
# Sequence of TYK2 (P29597 whole entry): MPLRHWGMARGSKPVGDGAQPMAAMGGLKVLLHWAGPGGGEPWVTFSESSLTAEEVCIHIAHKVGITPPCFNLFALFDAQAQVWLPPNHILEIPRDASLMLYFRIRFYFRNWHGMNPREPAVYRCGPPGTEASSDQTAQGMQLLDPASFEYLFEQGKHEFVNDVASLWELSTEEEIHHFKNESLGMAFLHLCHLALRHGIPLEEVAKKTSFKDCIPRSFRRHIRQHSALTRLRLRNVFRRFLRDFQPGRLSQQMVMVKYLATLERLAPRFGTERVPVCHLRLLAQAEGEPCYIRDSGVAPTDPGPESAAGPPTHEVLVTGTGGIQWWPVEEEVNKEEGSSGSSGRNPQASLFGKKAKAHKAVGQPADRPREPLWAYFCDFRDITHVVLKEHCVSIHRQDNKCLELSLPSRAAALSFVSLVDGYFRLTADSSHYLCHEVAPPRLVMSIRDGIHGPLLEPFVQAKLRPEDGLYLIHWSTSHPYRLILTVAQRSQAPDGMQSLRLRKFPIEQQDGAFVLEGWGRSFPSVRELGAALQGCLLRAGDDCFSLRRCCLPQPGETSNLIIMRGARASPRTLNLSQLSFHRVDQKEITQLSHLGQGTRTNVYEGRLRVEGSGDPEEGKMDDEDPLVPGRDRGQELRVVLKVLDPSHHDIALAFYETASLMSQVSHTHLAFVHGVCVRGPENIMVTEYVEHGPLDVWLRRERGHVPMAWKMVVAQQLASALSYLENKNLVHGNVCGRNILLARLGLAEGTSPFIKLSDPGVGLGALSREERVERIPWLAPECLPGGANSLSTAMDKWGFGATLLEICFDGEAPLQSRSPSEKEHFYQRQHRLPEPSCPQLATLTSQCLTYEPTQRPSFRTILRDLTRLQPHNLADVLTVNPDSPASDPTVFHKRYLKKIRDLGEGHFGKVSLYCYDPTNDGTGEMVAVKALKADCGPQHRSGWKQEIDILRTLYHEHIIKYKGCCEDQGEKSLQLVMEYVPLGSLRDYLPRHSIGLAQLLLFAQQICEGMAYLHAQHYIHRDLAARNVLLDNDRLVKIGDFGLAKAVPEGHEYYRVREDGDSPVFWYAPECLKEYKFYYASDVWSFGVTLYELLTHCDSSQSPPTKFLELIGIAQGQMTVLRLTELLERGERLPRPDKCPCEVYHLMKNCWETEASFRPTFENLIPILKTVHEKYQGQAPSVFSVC
# T1 sequence (O60674 828-1132): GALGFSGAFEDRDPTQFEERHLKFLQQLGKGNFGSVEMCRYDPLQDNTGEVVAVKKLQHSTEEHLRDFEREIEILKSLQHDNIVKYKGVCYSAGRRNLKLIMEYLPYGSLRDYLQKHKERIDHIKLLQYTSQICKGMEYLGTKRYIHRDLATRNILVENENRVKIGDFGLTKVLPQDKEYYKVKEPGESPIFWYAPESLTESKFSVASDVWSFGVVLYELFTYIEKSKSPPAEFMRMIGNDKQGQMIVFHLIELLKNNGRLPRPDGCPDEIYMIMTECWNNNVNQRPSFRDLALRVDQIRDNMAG
IC50 [1],ALK % of inhibition at a concentration of 500 nM or 1 mM [2],IC50 [3],IC50 [4],IC50 (TYK2),Structure (SMILES)
> 400 nM,50%,> 400 nM,57 nM,356 nM,"CC(=O)N1CCN(C(=O)Nc2ccc3cc2CCc2cncc(c2)Nc2ncc(Cl)c(n2)N3)CC1 [Example B317, 4-Acetyl-N-[6-chloro-2,4,8,18,22-pentaazatetracyclo[14.3.1.1(3,7).1(9,13)]docosa-1(20),3(22),4,6,9(21),10,12,16,18-nonaen-12-yl]piperazine-1-carboxamide bis(trifluoroacetate)]"
371 nM,61%,> 400 nM,24 nM,70 nM,"CS(=O)(=O)N1CCN(C(=O)Nc2ccc3cc2CCc2cncc(c2)Nc2ncc(Cl)c(n2)N3)CC1 [Example B318, N-[6-Chloro-2,4,8,18,22-pentaazatetracyclo[14.3.1.1(3,7).1(9,13)]docosa-1(20),3(22),4,6,9(21),10,12,16,18-nonaen-12-yl]-4-(methylsulfonyl)piperazine-1-carboxamide bis(trifluoroacetate)]"
> 400 nM,58%,> 400 nM,42 nM,288 nM,"O=C(Nc1ccc2cc1CCc1cncc(c1)Nc1ncc(Cl)c(n1)N2)N1CCN(S(=O)(=O)c2ccccc2)CC1 [Example B319, N-[6-Chloro-2,4,8,18,22-pentaazatetracyclo[14.3.1.1(3,7).1(9,13)]docosa-1(20),3(22),4,6,9(21),10,12,16,18-nonaen-12-yl]-4-(phenylsulfonyl)piperazine-1-carboxamide bis(trifluoroacetate)]"
> 400 nM,57%,> 400 nM,79 nM,> 400 nM,"CC1CN(C(=O)Nc2ccc3cc2CCc2cncc(c2)Nc2ncc(Cl)c(n2)N3)CCN1c1ccccc1 (stereo not shown) [Example B320, N-[6-Chloro-2,4,8,18,22-pentaazatetracyclo[14.3.1.1(3,7).1(9,13)]docosa-1(20),3(22),4,6,9(21),10,12,16,18-nonaen-12-yl]-3-methyl-4-phenylpiperazine-1-carboxamide tris(trifluoroacetate)]"
371 nM,36%,> 400 nM,75 nM,> 400 nM,"O=C(Nc1ccc2cc1CCc1cncc(c1)Nc1ncc(Cl)c(n1)N2)N1CCC(S(=O)(=O)c2ccccc2)C1 (stereo not shown) [Example B321, N-[6-Chloro-2,4,8,18,22-pentaazatetracyclo[14.3.1.1(3,7).1(9,13)]docosa-1(20),3(22),4,6,9(21),10,12,16,18-nonaen-12-yl]-3-(phenylsulfonyl)pyrrolidine-1-carboxamide bis(trifluoroacetate)]"
313 nM,74%,> 400 nM,32 nM,160 nM,"N#CC1(c2ccccc2)CCN(C(=O)Nc2ccc3cc2CCc2cncc(c2)Nc2ncc(Cl)c(n2)N3)CC1 [Example B322, N-[6-Chloro-2,4,8,18,22-pentaazatetracyclo[14.3.1.1(3,7).1(9,13)]docosa-1(20),3(22),4,6,9(21),10,12,16,18-nonaen-12-yl]-4-cyano-4-phenylpiperidine-1-carboxamide bis(trifluoroacetate)]"
14 nM,20%,2.1 nM,12 nM,0.89 nM,"N#CNC(=O)Nc1ccc2cc1CCc1cccc(c1)Nc1ncc(Cl)c(n1)N2 [Example B323, N-[6-chloro-2,4,8,22-tetraazatetracyclo[14.3.1.1(3,7).1(9,13)]docosa-1(20),3(22),4,6,9(21),10,12,16,18-nonaen-12-yl]-N′-cyanourea trifluoroacetate]"
56 nM,16%,7.5 nM,20 nM,2.8 nM,"O=C(NO)Nc1ccc2cc1CCc1cccc(c1)Nc1ncc(Cl)c(n1)N2 [Example B324, N-[6-Chloro-2,4,8,22-tetraazatetracyclo[14.3.1.1(3,7).1(9,13)]docosa-1(20),3(22),4,6,9(21),10,12,16,18-nonaen-12-yl]-N′-hydroxyurea trifluoroacetate]"
1.6 nM,19%,6.4 nM,2 nM,5.5 nM,"CCS(=O)(=O)NCCNC(=O)Nc1ccc2cc1CCc1cccc(c1)Nc1ncc(Cl)c(n1)N2 [Example B325, N-{2-[({[6-Chloro-2,4,8,22-tetraazatetracyclo[14.3.1.1(3,7).1(9,13)]docosa-1(20),3(22),4,6,9(21),10,12,16,18-nonaen-12-yl]amino}carbonyl)amino]ethyl}ethanesulfonamide trifluoroacetate]"
3.4 nM,19%,7.8 nM,3 nM,6.9 nM,"CCCS(=O)(=O)NCCNC(=O)Nc1ccc2cc1CCc1cccc(c1)Nc1ncc(Cl)c(n1)N2 [Example B326, N-{2-[({[6-Chloro-2,4,8,22-tetraazatetracyclo[14.3.1.1(3,7).1(9,13)]docosa-1(20),3(22),4,6,9(21),10,12,16,18-nonaen-12-yl]amino}carbonyl)amino]ethyl}propane-1-sulfonamide trifluoroacetate]"
1.8 nM,19%,4.2 nM,2 nM,5 nM,"O=C(NCCNS(=O)(=O)C1CC1)Nc1ccc2cc1CCc1cccc(c1)Nc1ncc(Cl)c(n1)N2 [Example B327, N-{2-[({[6-Chloro-2,4,8,22-tetraazatetracyclo[14.3.1.1(3,7).1(9,13)]docosa-1(20),3(22),4,6,9(21),10,12,16,18-nonaen-12-yl]amino}carbonyl)amino]ethyl}cyclopropanesulfonamide trifluoroacetate]"
25 nM,16%,24 nM,18 nM,7.1 nM,"CN(C)S(=O)(=O)NCCNC(=O)Nc1ccc2cc1CCc1cccc(c1)Nc1ncc(Cl)c(n1)N2 [Example B328, N-[6-chloro-2,4,8,22-tetraazatetracyclo[14.3.1.1(3,7).1(9,13)]docosa-1(20),3(22),4,6,9(21),10,12,16,18-nonaen-12-yl]-N′-(2-{[(dimethylamino)sulfonyl]amino}ethyl)urea trifluoroacetate]"
3.2 nM,20%,6.5 nM,3 nM,5.8 nM,"O=C(NCCNS(=O)(=O)c1ccccc1)Nc1ccc2cc1CCc1cccc(c1)Nc1ncc(Cl)c(n1)N2 [Example B329, N-{2-[({[6-Chloro-2,4,8,22-tetraazatetracyclo[14.3.1.1(3,7).1(9,13)]docosa-1(20),3(22),4,6,9(21),10,12,16,18-nonaen-12-yl]amino}carbonyl)amino]ethyl}benzenesulfonamide trifluoroacetate]"
6.1 nM,21%,7.1 nM,4 nM,16 nM,"O=C(NCCNS(=O)(=O)c1ccc(Cl)s1)Nc1ccc2cc1CCc1cccc(c1)Nc1ncc(Cl)c(n1)N2 [Example B330, 5-Chloro-N-{2-[({[6-chloro-2,4,8,22-tetraazatetracyclo[14.3.1.1(3,7).1(9,13)]docosa-1(20),3(22),4,6,9(21),10,12,16,18-nonaen-12-yl]amino}carbonyl)amino]ethyl}thiophene-2-sulfonamide trifluoroacetate]"
3.6 nM,27%,2.7 nM,2 nM,16 nM,"O=C(NCCNS(=O)(=O)c1ccc(Cl)nc1)Nc1ccc2cc1CCc1cccc(c1)Nc1ncc(Cl)c(n1)N2 [Example B331, 6-Chloro-N-{2-[({[6-chloro-2,4,8,22-tetraazatetracyclo[14.3.1.1(3,7).1(9,13)]docosa-1(20),3(22),4,6,9(21),10,12,16,18-nonaen-12-yl]amino}carbonyl)amino]ethyl}pyridine-3-sulfonamide trifluoroacetate]"
3.4 nM,23%,26 nM,3 nM,8.2 nM,"Cn1ccc(S(=O)(=O)NCCNC(=O)Nc2ccc3cc2CCc2cccc(c2)Nc2ncc(Cl)c(n2)N3)n1 [Example B332, N-{2-[({[6-chloro-2,4,8,22-tetraazatetracyclo[14.3.1.1(3,7).1(9,13)]docosa-1(20),3(22),4,6,9(21),10,12,16,18-nonaen-12-yl]amino}carbonyl)amino]ethyl}-1-methyl-1H-pyrazole-3-sulfonamide trifluoroacetate]"
15 nM,55%,1 nM,6.8 nM,1.2 nM,"Clc1cnc2nc1Nc1ccc(Nc3nc4cccnc4o3)c(c1)CCc1cccc(c1)N2 [Example B333, 6-Chloro-N-[1,3]oxazolo[5,4-b]pyridin-2-yl-2,4,8,22-tetraazatetracyclo[14.3.1.1(3,7).1(9,13)]docosa-1(20),3(22),4,6,9(21),10,12,16,18-nonaen-12-amine tris(trifluoroacetate)]"
